Assay: accelerated storage stability at 40° C. and 75% relative humidity (active ingredient content)

activity of the original quantity (160 μg levothyroxine-Na preparation, water factor 0.3, 40° C. and 75% relative humidity, 3 months)	residual activity (160 μg levothyroxine-Na preparation, water factors 0.4 to 0.5, 40° C. and 75% relative humidity, 3 months)	SMILES	employed quantity still active (combination preparation containing 25 μg liothyronine-Na, water factor 0.25, one month)	content remaining (combination preparation containing 25 μg liothyronine-Na, water factor 0.4 to 0.5, 1 month)
95.2 % by weight	90.7 % by weight	N[C@@H](Cc1cc(I)c(Oc2cc(I)c(O)c(I)c2)c(I)c1)C(=O)[O-].[Na+] [Levothyroxine-Na]		
		N[C@@H](Cc1cc(I)c(Oc2ccc(O)c(I)c2)c(I)c1)C(=O)[O-].[Na+] [liothyronine-Na]	97.7 % by weight	87.2%
